Experiments:
[1] = target: T1, Human STAT6 (truncated, aa122-658, with N-terminal His-tag) (Homo sapiens, UniProt P42226); assay: Surface plasmon resonance (SPR) assay, binding to human STAT6; conditions: Biacore 8K, 25° C, immobilized human STAT6 on CM5 chip, multi-cycle kinetics; geometric mean
T1 construct: Human STAT6 (truncated, aa122-658, with N-terminal His-tag, expressed in insect cells); His-tag (N); made in house; host or cells: insect cells
T1 sequence (P42226 122-658): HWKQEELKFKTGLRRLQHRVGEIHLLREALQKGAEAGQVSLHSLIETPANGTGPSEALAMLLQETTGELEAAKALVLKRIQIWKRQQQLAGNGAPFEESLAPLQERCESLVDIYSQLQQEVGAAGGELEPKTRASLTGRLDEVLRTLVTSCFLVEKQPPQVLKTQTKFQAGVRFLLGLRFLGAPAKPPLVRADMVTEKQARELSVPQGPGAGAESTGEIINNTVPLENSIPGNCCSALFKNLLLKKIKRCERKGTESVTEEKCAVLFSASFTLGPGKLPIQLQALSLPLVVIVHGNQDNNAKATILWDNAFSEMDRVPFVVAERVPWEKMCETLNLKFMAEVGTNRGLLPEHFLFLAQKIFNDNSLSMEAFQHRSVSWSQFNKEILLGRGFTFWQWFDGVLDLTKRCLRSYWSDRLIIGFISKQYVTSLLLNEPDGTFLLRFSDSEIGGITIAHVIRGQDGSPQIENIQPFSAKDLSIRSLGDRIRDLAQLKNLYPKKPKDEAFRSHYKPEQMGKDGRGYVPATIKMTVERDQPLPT
Procedure: Surface Plasmon Resonance Assay
Biacore instruments from the 8K-series (Cytiva) were used, and measurements were performed at 25° C. Human STAT6 (truncated, aa122-658, with N-terminal His-tag, expressed in insect cells) was immobilized in the active flow cells on a CM5 chip using amine-coupling (default settings) at 10 μg/ml in 10 mM acetate buffer pH 5.5, at a contact time of 120-420 sec. and a flow rate of 10 μl/min. Reference flow cells were deactivated using blank immobilization. PBS-P+(Cytiva) supplemented with 2% DMSO was used as running buffer, and solvent correction was applied. Compounds were tested by multi-cycle kinetics injections using a contact time of 60 sec., dissociation time of up to 300 sec., and a flow rate of 30 μl/min.
Solvent-corrected, reference-subtracted and blank-corrected data was processed and binding isotherms were fitted according to a single report point from each sensorgram (Standard: Late binding (5 sec. before injection end); alternative: Earlier report point according to binding profile). Data fitting was done both with unfixed Rmax and with Rmax fixed to the theoretical value* assuming 1:1 binding to allow processing of data from both weak and strong binders as well as to evaluate binding stoichiometry.
Positive controls were run at the beginning, during, and at the end of the screen to evaluate surface activity.
*Equation for calculation of the theoretical Rmax(Theoretical Rmax=(MW Analyte/MW Ligand)×immobilization level).

[2] = system: Eotaxin-3 (CCL26) release in human whole blood stimulated with IL-4; assay: Human whole blood eotaxin-3 assay (IL-4 stimulated eotaxin-3 release); assay type: cell-based; conditions: Homo sapiens, 48 h, human whole blood stimulated with recombinant human IL-4, 48 h, geometric mean; for Emax: given for test compounds with <80% Emax; for EC50: inhibition of eotaxin-3 release, given for test compounds with >80% Emax
Outline: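 Eotaxin-3 (CCL26) release was quantified by MSD immunoassay in supernatants of human heparinised whole blood after 48 h at 37° C with IL-4 ([…] final). Compounds, in 4-fold dilutions at 0.5% DMSO, were added 2 h before stimulation.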

SMILES	Kd [1] [nM]	Emax [2] [%]	EC50 [2] [nM]
CN(C)C(=O)c1ccc(C2CCN(Cc3cc4c(-n5ccc6c(c5=O)CCN6)ccnc4n3C)CC2)cc1 [Example 1d23, N,N-Dimethyl-4-[1-[[1-methyl-4-(4-oxo-2,3-dihydro-1H-pyrrolo[3,2-c]pyridin-5-yl)pyrrolo[2,3-b]pyridin-2-yl]methyl]-4-piperidyl]benzamide]	21.8	70 to 80	
CNc1ccn(-c2ccnc3c2cc(CN2CC[C@H](c4ccc(C(=O)N(C)C)cc4)C(F)(F)C2)n3C)c(=O)c1 (stereo in doubt) [Example 1f1, N,N-Dimethyl-4-[(4R)-3,3-difluoro-1-[[1-methyl-4-[4-(methylamino)-2-oxo-1-pyridyl]pyrrolo[2,3-b]pyridin-2-yl]methyl]-4-piperidyl]-benzamide]	15		98.5
CN(C)C(=O)c1ccc(C2CCN(Cc3cc4c(-n5ccc(N)c(Br)c5=O)ccnc4n3C)CC2)cc1 [Example 1d20, 4-[1-[[4-(4-Amino-3-bromo-2-oxo-1-pyridyl)-1-methyl-pyrrolo[2,3-b]pyridin-2-yl]methyl]-4-piperidyl]-N,N-dimethyl-benzamide]	16.1		99.3
CN(C)C(=O)c1ccc(C2CCN(Cc3cc4c(-n5ccc6[nH]nc(C(F)(F)F)c6c5=O)ccnc4n3C)C(=O)C2)cc1 (single isomer, unassigned) [Example 1ab1]	61	30 to 40	
CN(C)C(=O)c1ccc(C2CCN(Cc3cc4c(-n5cc(F)c(N)cc5=O)ccnc4n3C)CC2)cc1 [Example 1d19, 4-[1-[[4-(4-Amino-5-fluoro-2-oxo-1-pyridyl)-1-methyl-pyrrolo[2,3-b]pyridin-2-yl]methyl]-4-piperidyl]-N,N-dimethyl-benzamide]	32.9		257
CNc1ccn(-c2ccnc3c2cc(CN2CC=C(c4c(C)cc(C(=O)N(C)C)cc4C)CC2)n3C)c(=O)c1 [Example 1m12, N,N,3,5-Tetramethyl-4-(1-((1-methyl-4-(4-(methylamino)-2-oxopyridin-1 (2H)-yl)-1H-pyrrolo[2,3-b]pyridin-2-yl)methyl)-1,2,3,6-tetrahydropyridin-4-yl)benzamide]	8.66		15.6
CNc1ccn(-c2ccnc3c2cc(CN2CC=C(c4ccc(C(=O)N(C)C)cc4C(F)(F)F)CC2)n3C)c(=O)c1 [Example 1m59, N,N-Dimethyl-4-(1-((1-methyl-4-(4-(methylamino)-2-oxopyridin-1 (2H)-yl)-1H-pyrrolo[2,3-b]pyridin-2-yl)methyl)-1,2,3,6-tetrahydropyridin-4-yl)-3-(trifluoromethyl)benzamide]	14.3		96.1
[2H]C([2H])([2H])N(C(=O)c1ccc(C2=CCN(Cc3cc4c(-n5ccc(NC)cc5=O)ccnc4n3C)CC2)c(C)c1)C([2H])([2H])[2H] [Example 1m10, 3-Methyl-N,N-bis(methyl-d3)-4-(1-((1-methyl-4-(4-(methylamino)-2-oxopyridin-1 (2H)-yl)-1H-pyrrolo[2,3-b]pyridin-2-yl)methyl)-1,2,3,6-tetrahydropyridin-4-yl)benzamide]	9.57		37.4
CNc1ccn(-c2ccnc3c2cc(CN2CC=C(c4ccc(C(=O)N(C)C)cc4C)CC2)n3C)c(=O)c1 [Example 1m9, N,N,3-Trimethyl-4-(1-((1-methyl-4-(4-(methylamino)-2-oxopyridin-1 (2H)-yl)-1H-pyrrolo[2,3-b]pyridin-2-yl)methyl)-1,2,3,6-tetrahydropyridin-4-yl)benzamide]	11.8		32.1
COCc1c(N)ccn(-c2ccnc3c2cc(CN2CCC(c4ccc(C(=O)N(C)C)cc4)CC2)n3C)c1=O [Example 1d30, 4-[1-[[4-[4-Amino-3-(methoxymethyl)-2-oxo-1-pyridyl]-1-methyl-pyrrolo[2,3-b]pyridin-2-yl]methyl]-4-piperidyl]-N,N-dimethyl-benzamide]	25		88.4
CNc1ccn(-c2ccnc3c2cc(CN2CCN(c4ccc(C(=O)N(C)C)cc4)CC2)n3C)c(=O)c1 [Example 1m3, N,N-Dimethyl-4-(4-((1-methyl-4-(4-(methylamino)-2-oxopyridin-1 (2H)-yl)-1H-pyrrolo[2,3-b]pyridin-2-yl)methyl)piperazin-1-yl)benzamide]	244		
CN(C)C(=O)c1ccc(C2CCN(Cc3cc4c(-n5ccc(NC6CC6)cc5=O)ccnc4n3C)CC2)cc1 [Example 1d15, 4-[1-[[4-[4-(cyclo-Propylamino)-2-oxo-1-pyridyl]-1-methyl-pyrrolo[2,3-b]pyridin-2-yl]methyl]-4-piperidyl]-N,N-dimethyl-benzamide]	112		
CN(C)C(=O)c1ccc(C2CCN(Cc3cc4c(-n5ccc(NCc6ccc(Cl)cc6)cc5=O)ccnc4n3C)CC2)cc1 [Example 1d13, 4-[1-[[4-[4-[(4-Chlorophenyl)methylamino]-2-oxo-1-pyridyl]-1-methyl-pyrrolo[2,3-b]pyridin-2-yl]methyl]-4-piperidyl]-N,N-dimethyl-benzamide]	49		
[2H]C([2H])([2H])N(C(=O)c1ccc(N2CCN(Cc3cc4c(-n5ccc(NC)cc5=O)ccnc4n3C)CC2)nc1)C([2H])([2H])[2H] [Example 1m8, N,N-Bis(methyl-d3)-6-(4-((1-methyl-4-(4-(methylamino)-2-oxopyridin-1 (2H)-yl)-1H-pyrrolo[2,3-b]pyridin-2-yl)methyl)piperazin-1-yl)nicotinamide]	640		
CNc1ccn(-c2ccnc3c2cc(CN2CCN(c4ccc(C(=O)N(C)C)cc4)C[C@@H]2C)n3C)c(=O)c1 [Example 1m1, (S)—N,N-dimethyl-4-(3-methyl-4-((1-methyl-4-(4-(methylamino)-2-oxopyridin-1 (2H)-yl)-1H-pyrrolo[2,3-b]pyridin-2-yl)methyl)piperazin-1-yl)benzamide]	58.6		
CNc1ccn(-c2ccnc3c2cc(CN2CCN(c4ccc(C(=O)N(C)C)cn4)CC2)n3C)c(=O)c1 [Example 1m7, N,N-Dimethyl-6-(4-((1-methyl-4-(4-(methylamino)-2-oxopyridin-1 (2H)-yl)-1H-pyrrolo[2,3-b]pyridin-2-yl)methyl)piperazin-1-yl)nicotinamide]	735		
CN(C)C(=O)c1ccc(C2CC[N+]([O-])(Cc3cc4c(-n5ccc(N)cc5=O)ccnc4n3C)CC2)cc1 (stereo not shown) [Example 1d32, 4-[1-[[4-(4-Amino-2-oxo-1-pyridyl)-1-methyl-pyrrolo[2,3-b]pyridin-2-yl]methyl]-1-oxido-piperidin-1-ium-4-yl]-N,N-dimethyl-benzamide]	333		
CNc1ccn(-c2ccnc3c2cc(CN2CC=C(c4ncc(C(=O)N(C)C)cc4C)CC2)n3C)c(=O)c1 [Example 1m14, N,N,3-Trimethyl-1′-((1-methyl-4-(4-(methylamino)-2-oxopyridin-1 (2H)-yl)-1H-pyrrolo[2,3-b]pyridin-2-yl)methyl)-1′, 2′, 3′, 6′-tetrahydro-[2,4′-bipyridine]-5-carboxamide]	60.3		
CCN(CC)C(=O)c1ccc(C2CCN(Cc3cc4c(-n5ccc(NC)cc5=O)ccnc4n3C)CC2)cc1 [Example 1d10, N,N-Diethyl-4-[1-[[1-methyl-4-[4-(methylamino)-2-oxo-1-pyridyl]pyrrolo[2,3-b]pyridin-2-yl]methyl]-4-piperidyl]benzamide]	22.8		
CNc1ccn(-c2ccnc3c2cc([C@H](C)N2CCC(c4ccc(C(=O)N(C)C)cc4)CC2)n3C)c(=O)c1 (single isomer, unassigned) [Example 1m72]	338		
CN(C)C(=O)c1ccc(C2CCN(Cc3cc4c(-n5ncc(N)cc5=O)ccnc4n3C)CC2)cc1 [Example 1ab4, 4-(1-((4-(4-Amino-6-oxopyridazin-1 (6H)-yl)-1-methyl-1H-pyrrolo[2,3-b]pyridin-2-yl)methyl)piperidin-4-yl)-N,N-dimethylbenzamide]	224		
